Results from patent publication US6689813B2 (Biostatin Gyogyszerkutato-Fejleszto kft., priority 1998, dated 2004).
Where no end group is shown, it is not given here. [ ]: non-standard residue; d: D form.

Test system: Wistar rats
Experiment: 0.5% dextran-induced non-neurogenic inflammation (foot swelling, plethysmometer) after chronic denervation
Format: in vivo, rat
Procedure: This test is based on the fact that a non-neurogenic, so-called clearly chemical inflammation can be induced by chemical excitation (e.g. by dextran, carrageenin, formalin) on a chronically denervated body area at least 5 days following the transsection of the nerve. These chemical agents release inflammation-inducing substances (histamine, bradykinin, PAF, prostaglandins and leucotrienes) from immunocytes, chiefly from mast cells.
Dextran solution (0.1 ml, 0.5%) is administered into both feet, underneath the plantar skin of Wistar rats (5 to 7 animals in each group) anaesthetized by nembutal (40 mg/kg i.v.) 5 days after bilateral denervation (transsection of the saphenous and sciatic nerves) of the lower limbs. The pretreated animals received somatostatin (SS), ocreotide or TT-232 (10 μg/kg i.p.) 10 minutes earlier. Before the administration of dextran (0 minute value), then after 10, 20 and 30 minutes, respectively, the swelling of the feet was measured by using a plethysmometer (Ugo Basil). Dextran elicits the so-called clearly chemical inflammation in the feet deprived of nerve supply (innervation) through the transmitters released from the mast cells.
A dose/effect ratio was determined for each substance.

**Q.** For “D-Phe-Cys-Tyr-D-Trp-Lys-Cys-Thr-NH2 ([dF]CY[dW]KCT-NH2; cysteine pairing not given here) [TT-232]”, which “prevention of dextran-induced non-neurogenic inflammation (in words)” value (10 μg/kg, even 40 minutes following the pretreatment) is on record?
**A.** significantly prevented

**Q.** And the foot swelling % (Table 2.a, 0.5 μg/kg, 10 minutes)?
**A.** 27.63 ± 3.5%

**Q.** And the foot swelling % (Table 2.a, 0.5 μg/kg, 20 minutes)?
**A.** 39.94 ± 3.07%

**Q.** And the foot swelling % (Table 2.a, 0.5 μg/kg, 30 minutes)?
**A.** 41.33 ± 5.95%

**Q.** What about the foot swelling % (Table 2.a, 1.0 μg/kg, 10 minutes) of the same substance?
**A.** 20.51 ± 2.92%

**Q.** What about the foot swelling % (Table 2.a, 1.0 μg/kg, 20 minutes) of the same substance?
**A.** 38.07 ± 3.12%

**Q.** And the foot swelling % (Table 2.a, 1.0 μg/kg, 30 minutes)?
**A.** 44.32 ± 3.18%

**Q.** And the foot swelling % (Table 2.a, 2.5 μg/kg, 10 minutes)?
**A.** 20.54 ± 5.16%

**Q.** And the foot swelling % (Table 2.a, 2.5 μg/kg, 20 minutes)?
**A.** 33.02 ± 4.46%

**Q.** And the foot swelling % (Table 2.a, 2.5 μg/kg, 30 minutes)?
**A.** 39.59 ± 4.76%

**Q.** And the foot swelling % (Table 2.a, 5.0 μg/kg, 10 minutes)?
**A.** 17.29 ± 3.13%

**Q.** And the foot swelling % (Table 2.a, 5.0 μg/kg, 20 minutes)?
**A.** 27.81 ± 2.39%

**Q.** And the foot swelling % (Table 2.a, 5.0 μg/kg, 30 minutes)?
**A.** 35.95 ± 2.97%

**Q.** And the foot swelling % (Table 2.a, 10 μg/kg, 10 minutes)?
**A.** 17.60 ± 2.05%

**Q.** And the foot swelling % (Table 2.a, 10 μg/kg, 20 minutes)?
**A.** 27.59 ± 2.5%

**Q.** What about the foot swelling % (Table 2.a, 10 μg/kg, 30 minutes) of the same substance?
**A.** 36.40 ± 1.71%

**Q.** What about the foot swelling % (Table 2.a, 20 μg/kg, 10 minutes) of the same substance?
**A.** 19.56 ± 1.71%

**Q.** And the foot swelling % (Table 2.a, 20 μg/kg, 20 minutes)?
**A.** 29.73 ± 1.7%

**Q.** What about the foot swelling % (Table 2.a, 20 μg/kg, 30 minutes) of the same substance?
**A.** 37.67 ± 2.33%

**Q.** And the “prevention of foot-swelling compared with diclofenac and meloxicam (in words)” value (Table 2.a, TT-232 concentration a thousandth part of the others)?
**A.** more effectively

**Q.** And the foot swelling % (Table 2, 10 μg/kg i.p. 10 min before dextran, 10 minutes, control 32.97)?
**A.** 24.4%

**Q.** And the foot swelling % (Table 2, 10 μg/kg i.p. 10 min before dextran, 20 minutes, control 49.695)?
**A.** 34.39%

**Q.** What about the foot swelling % (Table 2, 10 μg/kg i.p. 10 min before dextran, 30 minutes, control 56.68) of the same substance?
**A.** 29.43%
